Tested on: SRC
Format: binding
Conditions: competitor against photo-probe labeling, Figure S1

Compound | competition of active site labeling of SRC
Cc1ccc(C(=O)Nc2ccc(CN3CCN(C)CC3)c(C(F)(F)F)c2)cc1C#Cc1cnc2cccnn12 [Ponatinib, reference compound] | able to block active site labeling
CNC(=O)c1cc(Oc2ccc(NC(=O)Nc3cc(C(C)(C)C)nn3-c3ccc4ncccc4c3)c(F)c2)ccn1 [Rebastinib, reference compound] | able to block active site labeling
